This note sets out measurements from patent US12679843B2, “Pyrrolopyrimidine amines as complement inhibitors” (BioCryst Pharmaceuticals, Inc., priority 2020, dated 2026).

pIC50: −log10 of the molar value.

Factor D, sequence (P00746 26-253): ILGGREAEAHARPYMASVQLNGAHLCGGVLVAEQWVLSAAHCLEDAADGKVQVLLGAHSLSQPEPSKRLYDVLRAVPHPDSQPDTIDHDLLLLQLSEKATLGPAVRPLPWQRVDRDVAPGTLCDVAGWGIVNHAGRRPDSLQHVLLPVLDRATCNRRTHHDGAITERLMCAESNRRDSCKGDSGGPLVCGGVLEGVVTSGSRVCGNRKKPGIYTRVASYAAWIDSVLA

The target in the assay is Factor D (Homo sapiens, UniProt P00746). Kind of assay: Factor D esterolytic assay (Z-Lys-SBzl thioester substrate, DTNB, 405 nm). It is filed as biochemical. The following applies: substrate Z-Lys-SBzl 1.29 mM, 100 mM HEPES, 500 mM NaCl, pH 7.5, 10% DMSO, tested a minimum of three times. Summed up:
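Run in pH 7.5 HEPES (100 mM) with 500 mM NaCl and 10% DMSO, with compound preincubated at room temperature or not before adding 1.29 mM Z-Lys-SBzl. Free thiol released by Factor D reacts with DTNB, and rate is followed at 405 nm minus 690 nm over 600 s. IC50 derives from rate-based inhibition, minimum three replicates.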
For the compound `COc1cc2c3c(N)ncnc3n(CC(=O)N3[C@H](C(=O)Nc4cccc(Br)n4)C[C@@]4(C)C[C@@H]34)c2cc1OC` [Compound 277a, (1R,3S,5R)-2-(2-(4-amino-6,7-dimethoxy-9H-pyrimido[4,5-b]indol-9-yl)acetyl)-N-(6-bromopyridin-2-yl)-5-methyl-2-azabicyclo[3.1.0]hexane-3-carboxamide], the pIC50 (usually the IC50 on a negative log10 scale, so that one unit is a factor of ten) was > 7.00.
On to `Cc1ccc2c(n1)c1c(N)ncnc1n2CC(=O)N1[C@@H]2C[C@@H]2C[C@H]1C(=O)Nc1cccc(Br)n1` [Compound 285g, (1R,3S,5R)-2-(2-(4-amino-6-methyl-9H-pyrido[2′,3′:4,5]pyrrolo[2,3-d]pyrimidin-9-yl)acetyl)-N-(6-bromopyridin-2-yl)-2-azabicyclo[3.1.0]hexane-3-carboxamide], for which the pIC50 was > 7.00.
On to `C[C@@]12C[C@@H](C(=O)NCc3cccc(Cl)c3F)N(C(=O)Cn3cnc4c(N)ncnc43)[C@@H]1C2` [Compound 67c, (1R,3S,5R)-2-(2-(6-amino-9H-purin-9-yl)acetyl)-N-(3-chloro-2-fluorobenzyl)-5-methyl-2-azabicyclo[3.1.0]hexane-3-carboxamide], for which the pIC50 is 6.00 to 7.00.
For `Nc1ncnc2c1c1cc(C(F)(F)F)cc(F)c1n2CC(=O)N1[C@@H]2C[C@@H]2C[C@H]1C(=O)Nc1cccc(Br)n1` [Compound 369g, (1R,3S,5R)-2-(2-(4-amino-8-fluoro-6-(trifluoromethyl)-9H-pyrimido[4,5-b]indol-9-yl)acetyl)-N-(6-bromopyridin-2-yl)-2-azabicyclo[3.1.0]hexane-3-carboxamide], the pIC50 was > 7.00.
As to `COc1cc(Cl)cc2c3c(N)ncnc3n(CC(=O)N3[C@H](C(=O)Nc4cccc(Br)n4)C[C@@]4(C)C[C@@H]34)c12` [Compound 239a, (1R,3S,5R)-2-(2-(4-amino-6-chloro-8-methoxy-9H-pyrimido[4,5-b]indol-9-yl)acetyl)-N-(6-bromopyridin-2-yl)-5-methyl-2-azabicyclo[3.1.0]hexane-3-carboxamide], the pIC50 was > 7.00.
For `CSc1cn(CC(=O)N2[C@@H]3C[C@@H]3C[C@H]2C(=O)Nc2cccc(Br)n2)c2ncnc(N)c12` [Compound 154e, (1R,3S,5R)-2-(2-(4-amino-5-(methylthio)-7H-pyrrolo[2,3-d]pyrimidin-7-yl)acetyl)-N-(6-bromopyridin-2-yl)-2-azabicyclo[3.1.0]hexane-3-carboxamide], the pIC50 is 6.00 to 7.00.
As for `Cc1ccc2c(c1)c1c(N)ncnc1n2C(C)C(=O)N1[C@@H]2C[C@@H]2C[C@H]1C(=O)Nc1cccc(Br)n1` (single isomer, unassigned) [Compound 22c], the pIC50 was < 6.00.
With `Cc1ccc(Br)nc1NC(=O)[C@@H]1C[C@H]2C[C@H]2N1C(=O)Cn1c2ccccc2c2c(N)ncnc21` [Compound 1e, (1R,3S,5R)-2-(2-(4-amino-9H-pyrimido[4,5-b]indol-9-yl)acetyl)-N-(6-bromo-3-methylpyridin-2-yl)-2-azabicyclo[3.1.0]hexane-3-carboxamide], the pIC50 is > 7.00.
For the compound `CO[C@@H]1C[C@@H](C(=O)Nc2cccc(Br)n2)N(C(=O)Cn2c3ccc(C(F)(F)F)cc3c3c(N)ncnc32)C1` [Compound 248d, (2S,4R)-1-(2-(4-amino-6-(trifluoromethyl)-9H-pyrimido[4,5-b]indol-9-yl)acetyl)-N-(6-bromopyridin-2-yl)-4-methoxypyrrolidine-2-carboxamide], the pIC50 is < 6.00.
`COC(=O)c1cccc2c3c(N)ncnc3n(CC(=O)N3[C@H](C(=O)Nc4cccc(Br)n4)C[C@@]4(C)C[C@@H]34)c12` [Compound 223a, methyl 4-amino-9-(2-((1R,3S,5R)-3-((6-bromopyridin-2-yl)carbamoyl)-5-methyl-2-azabicyclo[3.1.0]hexan-2-yl)-2-oxoethyl)-9H-pyrimido[4,5-b]indole-8-carboxylate]: the pIC50 is > 7.00.
Consider `Cc1cc2c(cc1Br)c1c(N)ncnc1n2CC(=O)N1[C@@H]2C[C@@H]2C[C@H]1C(=O)Nc1cccc(Br)n1` [Compound 379h, (1R,3S,5R)-2-(2-(4-amino-6-bromo-7-methyl-9H-pyrimido[4,5-b]indol-9-yl)acetyl)-N-(6-bromopyridin-2-yl)-2-azabicyclo[3.1.0]hexane-3-carboxamide], for which the pIC50 is > 7.00.
Next, `C[C@@]12C[C@@H](C(=O)Nc3cccc(Br)n3)N(C(=O)Cn3c4ccc(C(F)(F)F)nc4c4c(N)ncnc43)[C@@H]1C2` [Compound 231g, (1R,3S,5R)-2-(2-(4-amino-6-(trifluoromethyl)-9H-pyrido[2′,3′:4,5]pyrrolo[2,3-d]pyrimidin-9-yl)acetyl)-N-(6-bromopyridin-2-yl)-5-methyl-2-azabicyclo[3.1.0]hexane-3-carboxamide]: > 7.00; `COc1cc2c(cc1C(F)(F)F)c1c(N)ncnc1n2CC(=O)N1[C@H](C(=O)Nc2cccc(Br)n2)C[C@@]2(C)C[C@@H]12` [Compound 368a, (1R,3S,5R)-2-(2-(4-amino-7-methoxy-6-(trifluoromethyl)-9H-pyrimido[4,5-b]indol-9-yl)acetyl)-N-(6-bromopyridin-2-yl)-5-methyl-2-azabicyclo[3.1.0]hexane-3-carboxamide]: > 7.00; `Cc1ccc(Br)nc1NC(=O)[C@@H]1C[C@@](C)(F)CN1C(=O)Cn1c2ccc(C(F)(F)F)cc2c2c(N)ncnc21` [Compound 209b, (2S,4R)-1-(2-(4-amino-6-(trifluoromethyl)-9H-pyrimido[4,5-b]indol-9-yl)acetyl)-N-(6-bromo-3-methylpyridin-2-yl)-4-fluoro-4-methylpyrrolidine-2-carboxamide]: > 7.00.
Take `CC1(C)CCCC(NC(=O)[C@@H]2C[C@H]3C[C@H]3N2C(=O)Cn2cnc3c(N)ncnc32)C1` (stereo partly drawn) [Compound 97b, (1R,3S,5R)-2-(2-(6-amino-9H-purin-9-yl)acetyl)-N-(3,3-dimethylcyclohexyl)-2-azabicyclo[3.1.0]hexane-3-carboxamide]: the pIC50 is < 6.00.
As to `Cc1ccccc1-c1ccc2c(c1)c1c(N)ncnc1n2CC(=O)N1[C@@H]2C[C@@H]2C[C@H]1C(=O)Nc1cccc(Br)n1` [Compound 197c, (1R,3S,5R)-2-(2-(4-amino-6-(o-tolyl)-9H-pyrimido[4,5-b]indol-9-yl)acetyl)-N-(6-bromopyridin-2-yl)-2-azabicyclo[3.1.0]hexane-3-carboxamide], the pIC50 was > 7.00.
With `NC(=O)c1cn(CC(=O)N2C[C@H](F)C[C@H]2C(=O)NCc2cccc(Cl)c2F)c2ncnc(N)c12` [Compound 140a, 4-amino-7-(2-((2S,4R)-2-((3-chloro-2-fluorobenzyl)carbamoyl)-4-fluoropyrrolidin-1-yl)-2-oxoethyl)-7H-pyrrolo[2,3-d]pyrimidine-5-carboxamide], the pIC50 is < 6.00.
`Cc1ccc(-c2cc(C)c3c(c2)c2c(N)ncnc2n3CC(=O)N2[C@@H]3C[C@@H]3C[C@H]2C(=O)Nc2cccc(Br)n2)cc1` [Compound 256a, (1R,3S,5R)-2-(2-(4-amino-8-methyl-6-(p-tolyl)-9H-pyrimido[4,5-b]indol-9-yl)acetyl)-N-(6-bromopyridin-2-yl)-2-azabicyclo[3.1.0]hexane-3-carboxamide]: the pIC50 was > 7.00.
In the case of `COc1cc2c3c(N)ncnc3n(CC(=O)N3[C@@H]4C[C@@H]4C[C@H]3C(=O)Nc3cccc(Br)n3)c2cc1OC` [Compound 276g, (1R,3S,5R)-2-(2-(4-amino-6,7-dimethoxy-9H-pyrimido[4,5-b]indol-9-yl)acetyl)-N-(6-bromopyridin-2-yl)-2-azabicyclo[3.1.0]hexane-3-carboxamide], the pIC50 is > 7.00.
Consider `Cc1ccc(Br)nc1NC(=O)[C@@H]1C[C@@H](F)CN1C(=O)Cn1c2ccc(C(F)(F)F)cc2c2c(N)ncnc21` [Compound 14a, (2S,4R)-1-(2-(4-amino-6-(trifluoromethyl)-9H-pyrimido[4,5-b]indol-9-yl)acetyl)-N-(6-bromo-3-methylpyridin-2-yl)-4-fluoropyrrolidine-2-carboxamide], for which the pIC50 is > 7.00.
As for `COC(=O)c1cccc2c3c(N)ncnc3n(CC(=O)N3[C@@H]4C[C@@H]4C[C@H]3C(=O)Nc3cccc(Br)n3)c12` [Compound 47g, methyl 4-amino-9-(2-((1R,3S,5R)-3-((6-bromopyridin-2-yl)carbamoyl)-2-azabicyclo[3.1.0]hexan-2-yl)-2-oxoethyl)-9H-pyrimido[4,5-b]indole-8-carboxylate], the figure is > 7.00; as for `Nc1ncnc2c1c1cc(C(F)(F)F)ccc1n2CC(=O)N1[C@@H]2C[C@@H]2C[C@H]1C(=O)Nc1cccc(Br)n1` [Compound 27a, (1R,3S,5R)-2-(2-(4-amino-6-(trifluoromethyl)-9H-pyrimido[4,5-b]indol-9-yl)acetyl)-N-(6-bromopyridin-2-yl)-2-azabicyclo[3.1.0]hexane-3-carboxamide], > 7.00.
Next, `C[C@@]12C[C@@H](C(=O)Nc3cccc(Br)n3)N(C(=O)Cc3ccc4c(N)ncnn34)[C@@H]1C2` [Compound 71a, (1R,3S,5R)-2-(2-(4-aminopyrrolo[2,1-f][1,2,4]triazin-7-yl)acetyl)-N-(6-bromopyridin-2-yl)-5-methyl-2-azabicyclo[3.1.0]hexane-3-carboxamide]: 6.00 to 7.00; `COc1cccc2c3c(N)ncnc3n(CC(=O)N3[C@H](C(=O)Nc4nc(Br)ccc4C)C[C@@]4(C)C[C@@H]34)c12` [Compound 254a, (1R,3S,5R)-2-(2-(4-amino-8-methoxy-9H-pyrimido[4,5-b]indol-9-yl)acetyl)-N-(6-bromo-3-methylpyridin-2-yl)-5-methyl-2-azabicyclo[3.1.0]hexane-3-carboxamide]: > 7.00.
Consider `Cc1ccc(Br)nc1NC(=O)[C@@H]1C[C@@]2(C)C[C@H]2N1C(=O)Cn1c2ncnc(N)c2c2cc(C(F)(F)F)cc(C)c21` [Compound 302a, (1R,3S,5R)-2-(2-(4-amino-8-methyl-6-(trifluoromethyl)-9H-pyrimido[4,5-b]indol-9-yl)acetyl)-N-(6-bromo-3-methylpyridin-2-yl)-5-methyl-2-azabicyclo[3.1.0]hexane-3-carboxamide], for which the pIC50 was > 7.00.
